From patent US8207209B2, “Methods of inhibiting viral infection” (priority 2007, dated 2012) come the findings set out here.

This assay has as its system Ebola virus. Set-up: species or system mice. As to conditions: mouse, in vivo.

Molecules are shown by their SMILES.

Consider `Cc1cc(NCCCN(C)C)c2ccc3c(ccc4c(NCCCN(C)C)cc(C)nc43)c2n1.Cl.Cl.Cl.Cl` [Compound 365, Quino[8,7-h]quinoline-1,7-diamine,N,N′-bis[3-(dimethylamino)propyl]-3,9-dimethyl-tetrahydrochloride], for which the protection amounted to 100%.

Consider `N=C(N)c1ccc2oc(C=Cc3nc4ccc(C(=N)N)cc4[nH]3)cc2c1` [Compound 723, 2-[2-(5-carbamimidoyl-benzofuran-2-yl)-vinyl]-3H-benzoimidazole-5-carboxamidine], for which the “effectiveness of single dose 4 days after challenge” value is listed as “effectiveness”.
